Results: ChEMBL document CHEMBL1128661, “Vasorelaxant activity of 2-fluoroalkyl-6-nitro-2H-1-benzopyran-4-carbothioamide and -carboxamide K+ channel openers” (Bioorg Med Chem Lett, 1995)

Key:
[1] = species on record: Rattus norvegicus; experiment: Intrinsic vasorelaxant activity tested in rat aorta; type: functional
[2] = species on record: Rattus norvegicus; experiment: Negative logarithm of the molar concentration required to relax rat aorta precontracted with 30 mM KCI by 50% of IA; type: functional, organism-based

| Compound | Intrinsic activity [1] [%] | EC50 [2] [nM] |
| --- | --- | --- |
| C/N=C(/S)C1=CC(C)(C(F)(F)F)Oc2ccc([N+](=O)[O-])cc21 (configuration not stated) | 62.5 | 0.302 |
| CNC(=O)C1=CC(C)(CF)Oc2ccc([N+](=O)[O-])cc21 (configuration not stated) | 66 | 8.91 |
| CC1(CF)C=C(C(=O)NCCC#N)c2cc([N+](=O)[O-])ccc2O1 (configuration not stated) | 71 | 3.98 |
| C/N=C(/S)C1=CC(C)(CF)Oc2ccc([N+](=O)[O-])cc21 (configuration not stated) | 77.1 | 1.62 |
| N#CCCNC(=O)C1=CC(CF)(CF)Oc2ccc([N+](=O)[O-])cc21 | 72.3 | 2.24 |
| CC1(C)C=C(/C(S)=N\CCC#N)c2cc([N+](=O)[O-])ccc2O1 | 78.5 | 0.372 |
| CC1(C)C=C(C(=O)NCCC#N)c2cc([N+](=O)[O-])ccc2O1 | 73.1 | 2.82 |
| CC1(C(F)(F)F)C=C(C(=O)NCCC#N)c2cc([N+](=O)[O-])ccc2O1 (configuration not stated) | 70.6 | 0.692 |
| C/N=C(/S)C1=CC2(CCCC2)Oc2ccc([N+](=O)[O-])cc21 | – | 0.0209 |
| CC(N/C(=N\C#N)Nc1ccncc1)C(C)(C)C (configuration not stated) [PINACIDIL ANHYDROUS] | 91.9 | – |
| CC1(C)Oc2ccc(C#N)cc2[C@@H](N2CCCC2=O)[C@@H]1O [CROMAKALIM] | 74.7 | – |
| N#CCCNC(=O)C1=CC(C(F)(F)F)(C(F)(F)F)Oc2ccc([N+](=O)[O-])cc21 | 64.1 | 0.49 |
| CNC(=O)C1=CC(CF)(CF)Oc2ccc([N+](=O)[O-])cc21 | 70.7 | 5.13 |
| C/N=C(/S)C1=CC2(CCC2)Oc2ccc([N+](=O)[O-])cc21 | – | 0.0251 |
| N#CCC/N=C(/S)C1=CC(C(F)(F)F)(C(F)(F)F)Oc2ccc([N+](=O)[O-])cc21 | 74.8 | 0.437 |
| CNC(=O)C1=CC(C)(C)Oc2ccc([N+](=O)[O-])cc21 | 61 | – |
| C/N=C(/S)C1=CC(C(F)(F)F)(C(F)(F)F)Oc2ccc([N+](=O)[O-])cc21 | 68 | 0.631 |
| N#CCC/N=C(\S)C1=CC(CF)(CF)Oc2ccc([N+](=O)[O-])cc21 | 72.5 | 0.141 |
| C/N=C(/S)C1=CC(CF)(CF)Oc2ccc([N+](=O)[O-])cc21 | 74.5 | 0.479 |
| CNC(=O)C1=CC(C(F)(F)F)(C(F)(F)F)Oc2ccc([N+](=O)[O-])cc21 | 57.9 | 1.48 |
| C/N=C(/S)C1=CC(C)(C)Oc2ccc([N+](=O)[O-])cc21 | 63.5 | – |
| CC1(C(F)(F)F)C=C(/C(S)=N\CCC#N)c2cc([N+](=O)[O-])ccc2O1 (configuration not stated) | 69.7 | 0.363 |
| CC1(CF)C=C(/C(S)=N\CCC#N)c2cc([N+](=O)[O-])ccc2O1 (configuration not stated) | 59.6 | 1.86 |
| CNC(=O)C1=CC(C)(C(F)(F)F)Oc2ccc([N+](=O)[O-])cc21 (configuration not stated) | 61.7 | 2.69 |
